“And” between values parts separate entries of the source, which are not always exact repeats. Equal entries are not always repeated. Inconclusive results and toxic doses are left out.
System: P388 leukemia ip, CD2F1 mice, survival T/C
Test: NCI In Vivo Anticancer Drug Screen. Data for tumor model P388 Leukemia (intraperitoneal) in CD2F1 (CDF1) mice
Conditions: endpoint: median survival time, higher = longer survival
In short: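 Mice carrying the transplanted tumor received test compound or vehicle. Survival was recorded in each group, and the value is the treated-group measurement divided by that of the vehicle-treated control group.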

[1] = dose: 50.0 mg/kg/injection, schedule: Q01DX005 (ip), vehicle: Klucel (hydroxypropylcellulose) (HPC)
[2] = dose: 100.0 mg/kg/injection, schedule: Q01DX005 (ip), vehicle: Klucel (hydroxypropylcellulose) (HPC)
[3] = dose: 200.0 mg/kg/injection, schedule: Q01DX005 (ip), vehicle: Klucel (hydroxypropylcellulose) (HPC)
[4] = dose: 60.0 mg/kg/injection, schedule: Q01DX005 (ip), vehicle: Klucel (hydroxypropylcellulose) (HPC)
[5] = dose: 100.0 mg/kg/injection, schedule: Q04DX003 (ip), vehicle: saline with Tween-80
[6] = dose: 200.0 mg/kg/injection, schedule: Q04DX003 (ip), vehicle: saline with Tween-80
[7] = dose: 400.0 mg/kg/injection, schedule: Q04DX003 (ip), vehicle: saline with Tween-80
[8] = dose: 50.0 mg/kg/injection, schedule: Q01DX005 (ip), vehicle: saline with Tween-80
[9] = dose: 100.0 mg/kg/injection, schedule: Q01DX005 (ip), vehicle: saline with Tween-80
[10] = dose: 200.0 mg/kg/injection, schedule: Q01DX005 (ip), vehicle: saline with Tween-80
[11] = dose: 120.0 mg/kg/injection, schedule: Q01DX005 (ip), vehicle: Klucel (hydroxypropylcellulose) (HPC)

Q: Which results are given for CCN(CC)CCCC(C)NC(=O)Cc1cc(O)c2c(c1O)C(=O)c1ccccc1C2=O (stereo not given)?
A: T/C (dose: 2.5 mg/kg/injection, schedule: Q01DX009 (ip), vehicle: water): 108 % of control and 112 % of control; T/C (dose: 5.0 mg/kg/injection, schedule: Q01DX009 (ip), vehicle: water): 102 % of control and 110 % of control; T/C (dose: 10.0 mg/kg/injection, schedule: Q01DX009 (ip), vehicle: water): 99 % of control and 103 % of control and 97 % of control; T/C (dose: 20.0 mg/kg/injection, schedule: Q01DX009 (ip), vehicle: water): 99 % of control and 110 % of control and 93 % of control; T/C (dose: 40.0 mg/kg/injection, schedule: Q01DX009 (ip), vehicle: water): 102 % of control and 113 % of control; T/C (dose: 80.0 mg/kg/injection, schedule: Q01DX009 (ip), vehicle: water): 108 % of control

Q: How did the T/C [1] turn out when CCOC(=O)/C(C#N)=N/Nc1ccc(S(=O)(=O)NC(C)=O)cc1 was run?
A: 96 % of control

Q: And the T/C [2]?
A: 92 % of control

Q: What about the T/C [3] of the same molecule?
A: 96 % of control

Q: With Cc1cc(N)nc2cc(N)ccc12 as the molecule, how does the T/C (dose: 15.0 mg/kg/injection, schedule: Q01DX005 (ip), vehicle: Klucel (hydroxypropylcellulose) (HPC)) read?
A: 89 % of control

Q: And the T/C (dose: 30.0 mg/kg/injection, schedule: Q01DX005 (ip), vehicle: Klucel (hydroxypropylcellulose) (HPC))?
A: 99 % of control

Q: What about the T/C [4] of the same molecule?
A: 98 % of control

Q: CCCCOC(=O)C1ON(c2ccc(C=O)cc2)C(c2ccc([N+](=O)[O-])cc2)C1C(=O)OCCCC (stereo not given) was tested. Which T/C [1] did it give?
A: 97 % of control

Q: What about the T/C [2] of the same molecule?
A: 94 % of control

Q: And the T/C [3]?
A: 91 % of control

Q: With CN(C)CCSc1nnc(N)s1 as the molecule, how does the T/C (dose: 25.0 mg/kg/injection, schedule: Q01DX001 (ip), vehicle: saline) read?
A: 108 % of control

Q: And the T/C (dose: 50.0 mg/kg/injection, schedule: Q01DX001 (ip), vehicle: saline)?
A: 109 % of control

Q: What about the T/C (dose: 100.0 mg/kg/injection, schedule: Q01DX001 (ip), vehicle: saline) of the same molecule?
A: 105 % of control and 109 % of control

Q: What about the T/C (dose: 200.0 mg/kg/injection, schedule: Q01DX001 (ip), vehicle: saline) of the same molecule?
A: 94 % of control

Q: Which results are given for OC(CO/N=C1/c2ccccc2CCC1Cc1ccccc1)CN1CCOCC1 (stereo not given)?
A: T/C (dose: 60.0 mg/kg/injection, schedule: Q01DX005 (ip), vehicle: saline with Tween-80): 108 % of control; T/C (dose: 120.0 mg/kg/injection, schedule: Q01DX005 (ip), vehicle: saline with Tween-80): 116 % of control; T/C (dose: 240.0 mg/kg/injection, schedule: Q01DX005 (ip), vehicle: saline with Tween-80): 114 % of control

Q: With Cc1ccc(S(=O)(=O)C[n+]2ccc3ccccc3c2)cc1 as the molecule, how does the T/C [5] read?
A: 98 % of control

Q: And the T/C (dose: 100.0 mg/kg/injection, schedule: Q04DX003 (ip), vehicle: saline)?
A: 114 % of control and 118 % of control

Q: What about the T/C [6] of the same molecule?
A: 105 % of control

Q: And the T/C (dose: 200.0 mg/kg/injection, schedule: Q04DX003 (ip), vehicle: saline)?
A: 117 % of control

Q: And the T/C [7]?
A: 100 % of control

Q: With CSc1ncc(C#N)c2nc(-c3ccccc3)nn12 as the molecule, how does the T/C [8] read?
A: 97 % of control

Q: What about the T/C [9] of the same molecule?
A: 94 % of control

Q: And the T/C [10]?
A: 88 % of control

Q: With N#CC1=C(NC(N)=O)CCCC1 as the molecule, how does the T/C [4] read?
A: 106 % of control

Q: And the T/C [11]?
A: 100 % of control

Q: And the T/C (dose: 240.0 mg/kg/injection, schedule: Q01DX005 (ip), vehicle: Klucel (hydroxypropylcellulose) (HPC))?
A: 106 % of control

Q: What does the source list for O[C@H]1CCC[C@H]1NCc1ccnc2cc(Cl)ccc12?
A: T/C [8]: 100 % of control; T/C [9]: 89 % of control; T/C [10]: 91 % of control

Q: What does the source list for CCCCCCCCCC1c2[nH]c3ccccc3c2C(=O)NN1C(C)=O (stereo not given)?
A: T/C (dose: 100.0 mg/kg/injection, schedule: Q01DX001 (ip), vehicle: Klucel (hydroxypropylcellulose) (HPC)): 98 % of control; T/C (dose: 200.0 mg/kg/injection, schedule: Q01DX001 (ip), vehicle: Klucel (hydroxypropylcellulose) (HPC)): 98 % of control; T/C (dose: 400.0 mg/kg/injection, schedule: Q01DX001 (ip), vehicle: Klucel (hydroxypropylcellulose) (HPC)): 104 % of control

Q: COc1nc2c(=O)[nH]c(N)nc2n1C1OC(CO)C(O)C1O (stereo not given) was tested. Which T/C (dose: 100.0 mg/kg/injection, schedule: Q01DX009 (ip), vehicle: saline with Tween-80) did it give?
A: 98 % of control

Q: What about the T/C (dose: 200.0 mg/kg/injection, schedule: Q01DX009 (ip), vehicle: saline with Tween-80) of the same molecule?
A: 113 % of control

Q: And the T/C (dose: 400.0 mg/kg/injection, schedule: Q01DX009 (ip), vehicle: saline with Tween-80)?
A: 116 % of control

Q: Which T/C [8] does the source give for COc1c2c(c(OC)c3c1c(=O)c1ccccc1n3C)OCO2 here?
A: 104 % of control

Q: What about the T/C [9] of the same molecule?
A: 104 % of control

Q: And the T/C [10]?
A: 100 % of control

Q: What does the source list for CC1SC(N)=NN=C1c1c(O)c2ccccc2oc1=O (stereo not given)?
A: T/C (dose: 100.0 mg/kg/injection, schedule: Q04DX002 (ip), vehicle: Klucel (hydroxypropylcellulose) (HPC)): 103 % of control; T/C (dose: 200.0 mg/kg/injection, schedule: Q04DX002 (ip), vehicle: Klucel (hydroxypropylcellulose) (HPC)): 98 % of control; T/C (dose: 400.0 mg/kg/injection, schedule: Q04DX002 (ip), vehicle: Klucel (hydroxypropylcellulose) (HPC)): 97 % of control

Q: How did the T/C (dose: 50.0 mg/kg/injection, schedule: Q01DX009 (ip), vehicle: Klucel (hydroxypropylcellulose) (HPC)) turn out when CC(=O)NCCSC(=O)C(O)(c1ccccc1)c1ccccc1 was run?
A: 100 % of control

Q: And the T/C (dose: 100.0 mg/kg/injection, schedule: Q01DX009 (ip), vehicle: Klucel (hydroxypropylcellulose) (HPC))?
A: 98 % of control

Q: What about the T/C (dose: 200.0 mg/kg/injection, schedule: Q01DX009 (ip), vehicle: Klucel (hydroxypropylcellulose) (HPC)) of the same molecule?
A: 99 % of control

Q: Which T/C (dose: 5.0 mg/kg/injection, schedule: Q01DX005 (ip), vehicle: saline with Tween-80) does the source give for COc1cc(C)c(OC)c(C/C=C(\C)CC2(O)C[C@@]3(C)CCC[C@@]3(C)C(=O)C2CC(C)(C)O)c1 (stereo not given in full) here?
A: 92 % of control

Q: And the T/C (dose: 10.0 mg/kg/injection, schedule: Q01DX005 (ip), vehicle: saline with Tween-80)?
A: 95 % of control

Q: And the T/C (dose: 20.0 mg/kg/injection, schedule: Q01DX005 (ip), vehicle: saline with Tween-80)?
A: 93 % of control

Q: How did the T/C (dose: 1.56 mg/kg/injection, schedule: Q04DX003 (ip), vehicle: saline) turn out when CC(C)=CC[P+](CCCC[P+](CC=C(C)C)(c1ccccc1)c1ccccc1)(c1ccccc1)c1ccccc1 was run?
A: 100 % of control

Q: What about the T/C (dose: 3.12 mg/kg/injection, schedule: Q04DX003 (ip), vehicle: saline) of the same molecule?
A: 101 % of control

Q: With CNC(=O)Oc1[nH]c(=O)ncc1I as the molecule, how does the T/C (dose: 50.0 mg/kg/injection, schedule: Q04DX002 (ip), vehicle: saline with Tween-80) read?
A: 100 % of control

Q: And the T/C (dose: 100.0 mg/kg/injection, schedule: Q04DX002 (ip), vehicle: saline with Tween-80)?
A: 108 % of control and 109 % of control and 110 % of control

Q: What about the T/C (dose: 200.0 mg/kg/injection, schedule: Q04DX002 (ip), vehicle: saline with Tween-80) of the same molecule?
A: 105 % of control and 116 % of control

Q: For Cc1nc2c(N)cc(Cl)cc2[nH]1, which T/C (dose: 50.0 mg/kg/injection, schedule: Q01DX005 (ip), vehicle: saline + Tween-80 + alcohol) is on record?
A: 101 % of control

Q: What about the T/C [8] of the same molecule?
A: 103 % of control

Q: And the T/C (dose: 100.0 mg/kg/injection, schedule: Q01DX005 (ip), vehicle: saline + Tween-80 + alcohol)?
A: 110 % of control

Q: What about the T/C [9] of the same molecule?
A: 113 % of control

Q: And the T/C [10]?
A: 120 % of control

Q: c1ccc2c(NCCCCCCCNc3c4ccccc4nc4ccccc34)c3ccccc3nc2c1 was tested. Which T/C (dose: 2.5 mg/kg/injection, schedule: Q01DX009 (ip), vehicle: other) did it give?
A: 157 % of control

Q: And the T/C (dose: 5.0 mg/kg/injection, schedule: Q01DX009 (ip), vehicle: other)?
A: 155 % of control and 163 % of control and 175 % of control

Q: What about the T/C (dose: 10.0 mg/kg/injection, schedule: Q01DX009 (ip), vehicle: other) of the same molecule?
A: 112 % of control

Q: What does the source list for O=C(NC1CCCCC1)C(O)C(O)C(O)C(O)CO (stereo not given)?
A: T/C [1]: 107 % of control; T/C [2]: 107 % of control; T/C [3]: 104 % of control

Q: What does the source list for COc1ccc2c(c1)N(CCC1CCCCN1C)c1ccccc1S2 (stereo not given)?
A: T/C (dose: 12.5 mg/kg/injection, schedule: Q04DX003 (ip), vehicle: saline): 116 % of control; T/C (dose: 25.0 mg/kg/injection, schedule: Q04DX003 (ip), vehicle: saline): 115 % of control; T/C (dose: 50.0 mg/kg/injection, schedule: Q04DX003 (ip), vehicle: saline): 119 % of control

Q: What does the source list for Nc1nc(N)c2cc(NCc3ccccc3Cl)ccc2n1?
A: T/C (dose: 6.25 mg/kg/injection, schedule: Q01DX001 (ip), vehicle: saline with Tween-80): 100 % of control; T/C (dose: 12.5 mg/kg/injection, schedule: Q01DX001 (ip), vehicle: saline with Tween-80): 112 % of control; T/C (dose: 16.5 mg/kg/injection, schedule: Q01DX009 (ip), vehicle: saline with Tween-80): 104 % of control; T/C (dose: 25.0 mg/kg/injection, schedule: Q01DX001 (ip), vehicle: saline with Tween-80): 104 % of control

Q: How did the T/C [4] turn out when CCc1c(O)c2c(n(C)c1=O)CC(C)(C)NC2=S was run?
A: 100 % of control

Q: And the T/C [11]?
A: 100 % of control

Q: How did the T/C [5] turn out when CCSC/C(=N\Nc1ccc([N+](=O)[O-])cc1[N+](=O)[O-])c1ccccc1 was run?
A: 100 % of control

Q: What about the T/C [6] of the same molecule?
A: 95 % of control

Q: What about the T/C [7] of the same molecule?
A: 90 % of control

Q: Which T/C (dose: 50.0 mg/kg/injection, schedule: Q01DX005 (ip), vehicle: distilled water + alcohol) does the source give for CC1CCCCC1(O)Cc1ccccc1 (stereo not given) here?
A: 108 % of control

Q: What about the T/C (dose: 100.0 mg/kg/injection, schedule: Q01DX005 (ip), vehicle: distilled water + alcohol) of the same molecule?
A: 101 % of control

Q: And the T/C (dose: 200.0 mg/kg/injection, schedule: Q01DX005 (ip), vehicle: distilled water + alcohol)?
A: 105 % of control

From PubChem BioAssay AID330 (DTP/NCI, 2004)
